In PubChem BioAssay (NCI) one finds TGI and GI50 data, which are given here for 26 compounds.

Common to all, as to experiment: NCI tumour cell line growth inhibition, 48 h
For assay [1], the system named is NCI-H23 lung.
Assay [2] has as its system SNB-19 CNS.
In assay [3] the test system is UACC-62 melanoma.
Assay [4] concerns OVCAR-4 ovarian.
Assay [5] concerns DU-145 prostate.
The test system of assay [6] is SN12C renal.
Assay [7] has as its system TK-10 renal.
Assay [8] relates to HOP-92 NSCLC.
In assay [9] the test system is OVCAR-8 ovarian.
In assay [10] the test system is CAKI-1 renal.

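1) Cells in 96-well plates. 2) Compound, 48 h, 5 concentrations. 3) Linear interpolation between surrounding doses. 4) Unreached endpoint = highest concentration. The concentration for 50% growth inhibition is given as GI50. TGI: total growth inhibition.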

Take `S=C1SCN(Cc2ccco2)CN1c1ccc(Br)cc1`: the TGI in assay [1] was 29.2 µM; in assay [2], 72.2 µM; in assay [3], 15.2 µM; in assay [4], 37.5 µM; in assay [5] it was above 100 µM; in assay [6], 66.4 µM. Moreover, the TGI in [7] turned out to be 65.9 µM; in assay [8], 60.7 µM; in [9], 93.9 µM; in [10] it was 42.7 µM.
Regarding `CC(=O)c1c(C(F)(F)F)n([O-])c2cc(Cl)c(Cl)cc2[n+]1=O`, the TGI amounted to 2.71 µM in assay [1]; 2.27 µM in [2]; 2.58 µM in assay [3]; 2.73 µM in [4]; 3.37 µM in [5]; 2.69 µM in assay [6]. For the same compound, the TGI stood at 1.09 µM in [7], 0.88 µM in assay [8], 1.84 µM in assay [9] and 3.33 µM in [10].
Take `CCN(C(=S)N[C@H](C(=O)N[C@@H](C)C(=O)OC)C(C)C)c1ccccc1`: the TGI in [1], in assay [2], in assay [3], in assay [4], in assay [5] and in [6] was above 100 µM in each case. Moreover, the TGI in [7], in assay [8], in [9] and in assay [10] was above 100 µM each time.
Take `COc1ccc2nc3cc([N+](=O)[O-])ccc3c(Nc3ccc(S(=O)(=O)NC(C)=O)cc3)c2c1`: the TGI in [1], in assay [2], in [3], in [4], in assay [5] and in [6] was above 100 µM each time. Further, the TGI in [7], in assay [8] and in [10] was above 100 µM in each case.
As to `CCOC(=O)c1cnc2oc3ccc(O)cc3c2c1-c1ccccc1`, the TGI in assay [1], in assay [2], in assay [3], in assay [4], in assay [5] and in assay [6] was above 100 µM in each case. The TGI in assay [7], in assay [8], in [9] and in assay [10] was above 100 µM in each case.
Take `C=C(C)C(O)C(O)c1c(OC)ccc2ccc(=O)oc12` (configuration not stated): the TGI in assay [1], in [2], in [3], in assay [4], in assay [5] and in assay [6] was above 100 µM throughout. In addition, the TGI in [7], in assay [8], in [9] and in [10] was above 100 µM each time.
Regarding `O=C1/C(=N\S(=O)(=O)c2ccccc2)C([n+]2ccc(Cc3ccccc3)cc2)=C([O-])c2ccccc21`, the TGI is 1.36 µM in assay [1]; 3.3 µM in [2]; 2.42 µM in assay [3]; 3.13 µM in assay [4]; 2.89 µM in assay [5]; 3.12 µM in [6]. The TGI in [7] came out at 6.2 µM; in assay [8], 12.7 µM; in [9] it was 8.06 µM; in assay [10], 3.44 µM.
On to `CC1(C)[C@H]2CC[C@]1(C)[C@H](OC(=O)NNC(=O)O[C@@H]1C[C@@H]3CC[C@@]1(C)C3(C)C)C2`, for which the TGI in assay [1] is 34.9 µM; in [2] it was 39.1 µM; in assay [3], 38.8 µM; in assay [4] it was 24.1 µM; in assay [5], 32.7 µM; in assay [6], 24.7 µM. Moreover, the TGI in [7] amounted to 38.6 µM; in [8] it was 33.6 µM; in [10], 28.8 µM.
Consider `O=C(OCCN=c1c2ccccc2ccc2ccccc12)c1ccc([N+](=O)[O-])cc1`, for which the TGI in [1], in [2], in assay [3], in [4], in assay [5] and in assay [6] was above 100 µM throughout. Moreover, the TGI in assay [7], in assay [8], in assay [9] and in assay [10] was above 100 µM in each case.
On to `CCCCCCCCCCCCCCCCCCNc1ccn(C2OC(COP(=O)(O)OCC3OC(n4cc(F)c(NCCCCCCCCCCCCCCCCCC)nc4=O)CC3O)C(O)C2O)c(=O)n1` (configuration not stated), for which the TGI in assay [1], in assay [2], in assay [3], in assay [4], in assay [5] and in [6] was above 100 µM in each case. For the same compound, the TGI in assay [7], in assay [8], in [9] and in [10] was above 100 µM in each case.
`CCNC(=O)c1cc(/C=C/c2ccc([N+](=O)[O-])o2)nc2ccccc12`: the TGI in assay [1], in [2], in [3], in assay [4], in [5] and in assay [6] was above 100 µM each time. Further, the TGI in assay [7] was above 91.9 µM; in assay [8] it was above 100 µM; in [9] it was above 100 µM; in assay [10] it was above 100 µM.
On to `CCOP(=O)(OCC)C1CC(n2cc(C)c(=O)[nH]c2=O)OC1CO` (configuration not stated), for which the TGI in assay [1], in [2], in assay [3], in [4], in assay [5] and in [6] was above 100 µM in each case. The TGI in [7], in assay [8], in [9] and in assay [10] was above 100 µM throughout.
For the compound `COc1c(O)cc(O)c2c(=O)cc(-c3ccccc3)oc12`, the TGI in assay [1] is above 100 µM; in assay [2], above 100 µM; in assay [3], above 100 µM; in assay [4], above 100 µM; in assay [5], 79.5 µM; in [6], above 100 µM. Moreover, the TGI in assay [7], in [8], in assay [9] and in assay [10] was above 100 µM in each case.
On to `O=C(Nc1ccccc1)N(CCCCN(Cc1ccccc1)C(=O)Nc1ccccc1)Cc1ccccc1`, for which the TGI in assay [1], in assay [2], in [3], in assay [4], in assay [5] and in assay [6] was above 100 µM in each case. Further, the TGI in assay [7], in assay [8], in assay [9] and in assay [10] was above 100 µM each time.
As to `Cc1ccc2c(c1C)C(=O)/C(=C/c1ccccc1C(=O)O)C2`, the TGI in assay [1], in [2], in assay [3], in [4], in [5] and in assay [6] was above 100 µM throughout. Further, the TGI in assay [7], in [8], in assay [9] and in assay [10] was above 100 µM in each case.
In the case of `O=c1cc(N2CCN(c3cc(=O)n4ccccc4n3)CC2)oc2ccccc12`, the TGI in assay [1], in assay [2], in [3], in assay [4], in assay [5] and in assay [6] was above 100 µM each time. The TGI in [7] is above 100 µM; in assay [8], above 100 µM; in [9], 96.9 µM; in [10], above 100 µM.
With `C#CCSC(C=C=C)P(=O)(OC(C)C)OC(C)C` (configuration not stated), the TGI was above 100 µM in assay [1]; above 100 µM in assay [2]; above 100 µM in [3]; above 100 µM in [4]; above 100 µM in assay [5]; 88.3 µM in assay [6]. Also, the TGI in assay [7], in assay [8], in assay [9] and in assay [10] was above 100 µM in each case.
For `COc1ccc(C(SC2C(O)C(CO)OC2n2ccc(N)nc2=O)(c2ccccc2)c2ccc(OC)cc2)cc1` (configuration not stated), the TGI in assay [1] worked out at 57.6 µM; in assay [2] it was 64.4 µM; in assay [3], 33 µM; in assay [4], 78.2 µM; in assay [5], 39.4 µM; in [6], 27.5 µM. The TGI is 66.2 µM in assay [7], 37.3 µM in assay [8], above 100 µM in [9] and above 100 µM in [10].
For the compound `CCOC(=O)c1c(N2CCCC2)ncn(Cc2ccccc2)c1=S`, the TGI in [1], in assay [2], in assay [3], in assay [4], in assay [5] and in assay [6] was above 100 µM in each case. The TGI in assay [7] is above 100 µM; in assay [8], above 100 µM; in [9] it was above 100 µM; in assay [10], 88.3 µM.
For the compound `CN(C)c1nc2oc(-c3ccccc3)c(-c3ccccc3)c2c2nnnn12`, the TGI in [1], in assay [2], in assay [3], in [4], in assay [5] and in assay [6] was above 100 µM each time. The TGI in assay [7], in assay [8], in assay [9] and in assay [10] was above 100 µM in each case.
In the case of `COc1ccc(NC(C)=O)cc1N1C(=O)/C(=C\c2cc(OC)c(OC)c(OC)c2)SC1c1ccccc1` (configuration not stated), the TGI in assay [1], in [2], in assay [3], in assay [4], in assay [5] and in assay [6] was above 100 µM in each case. Besides, the TGI is above 100 µM in assay [7], above 100 µM in assay [8], above 100 µM in [9] and 60.2 µM in assay [10].
As to `CSc1n[nH]c(N)c1C(=O)Nc1ccc(C)cc1`, the TGI in assay [1], in [2], in assay [3], in assay [4], in assay [5] and in assay [6] was above 100 µM throughout. Further, the TGI is above 100 µM in [7], 68.3 µM in assay [8] and above 100 µM in assay [10].
Regarding `C[C@@H]1CC[C@H]2C(C(O)CCCCC(O)C3=C(C(F)(F)F)O[C@@H]4O[C@@]5(C)CC[C@H]6[C@H](C)CC[C@@H]3[C@@]46OO5)=C(C(F)(F)F)O[C@@H]3O[C@@]4(C)CC[C@@H]1[C@]32OO4` (some centres not stated), the GI50 is above 100 µM in [2]; 8.13 µM in [3]; 28.5 µM in assay [4]; 99.9 µM in assay [5]; 21 µM in assay [6]; above 100 µM in [7]. In addition, the values for the GI50 in assay [8], in assay [9] and in assay [10] were 11.2 µM, 11.3 µM and 5.72 µM, respectively. The TGI in assay [2], in assay [3], in assay [4], in assay [5], in [6] and in assay [7] was above 100 µM in each case. Moreover, the TGI in assay [8], in [9] and in assay [10] was above 100 µM each time.
On to `CCOC(=O)c1cc2c(C(=O)c3ccc([N+](=O)[O-])cc3)c(C(C)=O)ccc2[nH]1`, for which the TGI in assay [1] is above 100 µM; in assay [2] it was 87.9 µM; in assay [3] it was above 100 µM; in [4] it was above 100 µM; in assay [5] it was above 100 µM; in assay [6], above 100 µM. Further, the TGI in assay [7] was above 100 µM; in assay [8] it was 44.6 µM; in assay [10], above 100 µM.
On to `Oc1c([Si](c2ccccc2)(c2ccccc2)c2ccccc2)cc2ccccc2c1-c1c(O)c([Si](c2ccccc2)(c2ccccc2)c2ccccc2)cc2ccccc12`, for which the TGI in assay [1], in assay [2], in [3], in [4], in assay [5] and in assay [7] was above 100 µM each time. Also, the TGI in assay [8], in assay [9] and in assay [10] was above 100 µM in each case.
Take `Nc1ccccc1CC(O)C(=O)O` (configuration not stated): the TGI in [1], in assay [2], in assay [3], in assay [5], in assay [6] and in [7] was above 100 µM in each case. In addition, the TGI in [8], in assay [9] and in assay [10] was above 100 µM in each case.
